These results are taken from patent US20090023186A1, “USE OF VALPROIC ACID FOR ENHANCING PRODUCTION OF RECOMBINANT PROTEINS IN MAMMALIAN CELLS” (EXCELLGENE SA, priority 2007, published 2009).

In test [1] the test system is CHO DG44 cells. Description: Influence of temperature on IgG batch titer and comparison with sodium butyrate (Example 2). It counts as cell-based, Chinese Hamster. To be noted: 3 mmol/l sodium butyrate; relative to control = 1; day 5 after transfection. The method, then:
(§1) No. 14571C-[…]; Lot No. 6A0093; SAFC Biosciences, Lenexa, Kans., USA, “Ex-Cell” medium; note: “Ex-Cell” medium-as used herein-refers to a medium comprising 4 mmol/l L-glutamine) in a 50-ml filter tube each (TPP AG, Trasadingen, Switzerland; Cat. No. 87050, Lot 20050174). In a separate set, 10 million suspension-adapted CHO DG44 cells were resuspended in 0.5 ml of ProCHO5 serum-free medium with 4 mmol/[…] hypoxanthine and 0.194 g/l thymidine (BioWhittaker (Lonza), Belgium; Cat. No. BE12-[…]; Lot No. 7 MB0040; “ProCHO5” medium; note: “ProCHO5” medium-as used herein-refers to a medium comprising 4 mmol/[…] hypoxanthine and 0.194 g/l thymidine) in a 50-ml filter tube each (TPP AG, Trasadingen, Switzerland; Cat. No. 87050, Lot 20050174). Then 12.5 μg plasmid DNA at a concentration of 1 μg/μl was added in each tube with the following composition 50% (6.25 μg) p-LC (SEQ ID NO: 1) 50% (6.25 μg) p-HC (SEQ ID NO: 3). Plasmid p-LC comprises the genetic information for the production of the light chain of an IgG antibody, plasmid p-HC comprises the genetic information for the production of the heavy chain of an IgG antibody. The particular vector constructs used in the present invention can also be obtained from the inventors. The inventors can be contacted via e-mail at […]. Moreover, commercial services do exist that produce any desired nucleotide sequence even comprising several kilobase pairs including complete expression cassettes in plasmid backgrounds (e.g., Invitrogen, Carlsbad, USA; Geneart, Germany.) Thus, providing the genetic sequence information of the plasmids should enable one of ordinary skill in the art to order the plasmids of the present invention at one of the commercial services listed. After shortly mixing the DNA with the cells by gentle shaking, 25 μg of 25-kd linear polyethyleneimine (“PEI”; Polysciences, Eppelheim, Germany; [2]) were added at a concentration of 1 μg/μl to each of the tubes. After shortly mixing by gentle shaking, the filter tubes containing the cells together with the DNA and PEI were transferred into an orbital shaker (Kühner Shaker Cabinet ISF-4-W, “Kühner shaker”, Kühner AG, Birsfelden, Switzerland), and the cells were incubated for 4 hours at 37° C. in a 5% CO2 atmosphere under shaking at 180 rpm. After that time, 4.5 ml of Ex-Cell medium were added to each of the filter tubes containing HEK 293 cells and 4.5 ml of Pro-CHO5 were added to each of the filter tubes containing CHO DG44 cells. […] No. […] Sigma-Aldrich Chemie GmbH, Industriestrasse 25, CH-9471 Buchs SG) was added to the corresponding tubes at the corresponding final concentrations. The cells then were returned into the Kühner shaker. Half the tubes were incubated at 37° C. in a 5% CO2 atmosphere under shaking at 180 rpm, the other half was incubated at 31° C. […] The ELISA was performed as published in prior art. In short, Goat anti-human kappa light chain IgG (Biosource) was used for coating the ELISA-plates, and with AP-conjugated goat anti-human gamma chain IgG (Biosource) the synthesized IgG1 was detected. NPP was used as a substrate for the alkaline phosphatase. Absorption was measured at 405 nm against 490 nm using a microplate reader (SPECTRAmaxTM340; Molecular Devices, Palo Alto, Calif., USA).

Test [2] relates to HEK293E cells. Description: Preferred embodiment: transient IgG expression with p18 and p21 co-transfection, batch titer by ELISA. The format is cell-based, Human. On the procedure:
20 million suspension-adapted HEK293E cells were resuspended in 1 ml of Ex-Cell 293 HEK 293 serum-free medium with 4 mmol/l L-glutamine (Cat. No. 14571C-[…]; Lot No. 6A0093; SAFC Biosciences, Lenexa, Kans., USA, “Ex-Cell” medium; note: “Ex-Cell” medium-as used herein-refers to a medium comprising 4 mmol/l L-glutamine) in a 50-ml filter tube each (TPP AG, Trasadingen, Switzerland; Cat. No. 87050, Lot 20050174). Then 50 μg plasmid DNA at a concentration of 1 μg/μl was added in each tube with the following composition […] Plasmid p-LC comprises the genetic information for the production of the light chain of an IgG antibody, plasmid p-HC comprises the genetic information for the production of the heavy chain of an IgG antibody, plasmid p-p18 comprises the genetic information for the protein p18, and plasmid p-p21 comprises the genetic information for the protein p21. The particular vector constructs used in the present invention can also be obtained from the inventors. The inventors can be contacted via e-mail at […]. Moreover, commercial services do exist that produce any desired nucleotide sequence even comprising several kilobase pairs including complete expression cassettes in plasmid backgrounds (e.g., Invitrogen, Carlsbad, USA; Geneart, Germany.) Thus, providing the genetic sequence information of the plasmids should enable one of ordinary skill in the art to order the plasmids of the present invention at one of the commercial services listed. After shortly mixing the DNA with the cells by gentle shaking, 100 μg of 25-kd linear polyethyleneimine (“PEI”; Polysciences, Eppelheim, Germany; [2]) were added at a concentration of 1 μg/μl to each of the tubes. After shortly mixing by gentle shaking, the filter tubes containing the cells together with the DNA and PEI were transferred into an orbital shaker (Kühner Shaker Cabinet ISF-4-W, “Kühner shaker”, Kühner AG, Birsfelden, Switzerland), and the cells were incubated for 3 hours at 37° C. in a 5% CO2 atmosphere under shaking at 180 rpm. After that time, 4 ml of Ex-Cell medium were added to each of the filter tubes. […] No. B5887-1G; Sigma-Aldrich Chemie GmbH, Industriestrasse 25, CH-9471 Buchs SG) was added to the corresponding tubes at the corresponding final concentrations. […] The ELISA was performed as published in prior art. In short, Goat anti-human kappa light chain IgG (Biosource) was used for coating the ELISA-plates, and with AP-conjugated goat anti-human gamma chain IgG (Biosource) the synthesized IgG1 was detected. NPP was used as a substrate for the alkaline phosphatase. Absorption was measured at 405 nm against 490 nm using a microplate reader (SPECTRAmaxTM340; Molecular Devices, Palo Alto, Calif., USA).
(An ELISA detects its analyte on a solid surface through an enzyme-linked reagent.)

The test system of test [3] is HEK293E cells. The experiment in a line: Influence of temperature on IgG batch titer and comparison with sodium butyrate (Example 2). It counts as cell-based, Human. To be noted: 3 mmol/l sodium butyrate; relative to control = 1; day 5 after transfection. The method, then: as §1
Test [4] has as its system CHO DG44 cells. Description: Combination with IDMTs, IgG batch yield by ELISA (Example 6). The format is cell-based, Chinese Hamster. To be noted: day 5; for Fold increase in batch yield over control: no addition = 100%; for interaction with VPA in increasing batch yield: CHO cells. The method, then:
10 million suspension-adapted HEK293E cells were resuspended in 0.5 ml of Ex-Cell 293 HEK 293 serum-free medium with 4 mmol/l L-glutamine (Cat. No. 14571C-[…]; Lot No. 6A0093; SAFC Biosciences, Lenexa, Kans., USA, “Ex-Cell” medium; note: “Ex-Cell” medium-as used herein-refers to a medium comprising 4 mmol/l L-glutamine) in a 50-ml filter tube each (TPP AG, Trasadingen, Switzerland; Cat. No. 87050, Lot 20050174). In a separate set, 10 million suspension-adapted CHO DG44 cells were resuspended in 0.5 ml of ProCHO5 serum-free medium with 4 mmol/[…] hypoxanthine and 0.194 g/l thymidine (BioWhittaker (Lonza), Belgium; Cat. No. BE12-[…]; Lot No. 7MB0040; “ProCHO5” medium; note: “ProCHO5” medium-as used herein-refers to a medium comprising 4 mmol/[…] hypoxanthine and 0.194 g/l thymidine) in a 50-ml filter tube each (TPP AG, Trasadingen, Switzerland; Cat. No. 87050, Lot 20050174). Then 12.5 μg plasmid DNA at a concentration of 1 μg/μl was added in each tube with the following composition 50% (6.25 μg) p-LC (SEQ ID NO: 1) 50% (6.25 μg) p-HC (SEQ ID NO: 3). Plasmid p-LC comprises the genetic information for the production of the light chain of an IgG antibody, plasmid p-HC comprises the genetic information for the production of the heavy chain of an IgG antibody. The particular vector constructs used in the present invention can also be obtained from the inventors. The inventors can be contacted via e-mail at […]. Moreover, commercial services do exist that produce any desired nucleotide sequence even comprising several kilobase pairs including complete expression cassettes in plasmid backgrounds (e.g., Invitrogen, Carlsbad, USA; Geneart, Germany.) Thus, providing the genetic sequence information of the plasmids should enable one of ordinary skill in the art to order the plasmids of the present invention at one of the commercial services listed. After shortly mixing the DNA with the cells by gentle shaking, 25 μg of 25-kd linear polyethyleneimine (“PEI”; Polysciences, Eppelheim, Germany; [2]) were added at a concentration of 1 μg/μl to each of the tubes. After shortly mixing by gentle shaking, the filter tubes containing the cells together with the DNA and PEI were transferred into an orbital shaker (Kühner Shaker Cabinet ISF-4-W, “Kühner shaker”, Kühner AG, Birsfelden, Switzerland), and the cells were incubated for 4 hours at 37° C. in a 5% CO2 atmosphere under shaking at 180 rpm. After that time, 4.5 ml of Ex-Cell medium were added to each of the filter tubes containing HEK 293 cells and 4.5 ml of Pro-CHO5 were added to each of the filter tubes containing CHO DG44 cells. Then, valproic acid was added to each of the tubes at the corresponding final concentration. In addition, the following chemicals were added to the corresponding tubes at a final concentration of: […] Azacytidine was purchased from Sigma-Aldrich Chemie GmbH, Industriestrasse 25, CH-9471 Buchs SG, Catalog Number A1287-1 VL. RG108 was purchased from Sigma-Aldrich Chemie GmbH, Industriestrasse 25, CH-9471 Buchs SG, Catalog Number R8279-10MG. The cells then were returned into the Kuhner shaker and incubated at 37° C. in a 5% CO2 atmosphere under shaking at 180 rpm. […] In short, Goat anti-human kappa light chain IgG (Biosource) was used for coating the ELISA-plates, and with AP-conjugated goat anti-human gamma chain IgG (Biosource) the synthesized IgG1 was detected. […] Absorption was measured at 405 nm against 490 nm using a microplate reader (SPECTRAmaxTM340; Molecular Devices, Palo Alto, Calif., USA).

For test [5], the system named is HEK293E cells. The test is described as above. The format is cell-based, Human. Conditions: no addition = 100%, day 5. On the procedure:
10 million suspension-adapted HEK293E cells were resuspended in 0.5 ml of Ex-Cell 293 HEK 293 serum-free medium with 4 mmol/l L-glutamine (Cat. No. 14571C-[…]; Lot No. 6A0093; SAFC Biosciences, Lenexa, Kans., USA, “Ex-Cell” medium; note: “Ex-Cell” medium-as used herein-refers to a medium comprising 4 mmol/l L-glutamine) in a 50-ml filter tube each (TPP AG, Trasadingen, Switzerland; Cat. No. 87050, Lot 20050174). In a separate set, 10 million suspension-adapted CHO DG44 cells were resuspended in 0.5 ml of ProCHO5 serum-free medium with 4 mmol/[…] hypoxanthine and 0.194 g/l thymidine (BioWhittaker (Lonza), Belgium; Cat. No. BE12-[…]; Lot No. 7MB0040; “ProCHO5” medium; note: “ProCHO5” medium-as used herein-refers to a medium comprising 4 mmol/[…] hypoxanthine and 0.194 g/l thymidine) in a 50-ml filter tube each (TPP AG, Trasadingen, Switzerland; Cat. No. 87050, Lot 20050174). Then 12.5 μg plasmid DNA at a concentration of 1 μg/μl was added in each tube with the following composition 50% (6.25 μg) p-LC (SEQ ID NO: 1) 50% (6.25 μg) p-HC (SEQ ID NO: 3). Plasmid p-LC comprises the genetic information for the production of the light chain of an IgG antibody, plasmid p-HC comprises the genetic information for the production of the heavy chain of an IgG antibody. The particular vector constructs used in the present invention can also be obtained from the inventors. The inventors can be contacted via e-mail at […]. […] In short, Goat anti-human kappa light chain IgG (Biosource) was used for coating the ELISA-plates, and with AP-conjugated goat anti-human gamma chain IgG (Biosource) the synthesized IgG1 was detected. […] Absorption was measured at 405 nm against 490 nm using a microplate reader (SPECTRAmaxTM340; Molecular Devices, Palo Alto, Calif., USA).

SMILES strings stand for the structures.

Regarding `CCCC(=O)[O-].[Na+]` [sodium butyrate], in the test on CHO DG44 cells [1], the “Batch titer increase at 31° C.” value was determined as 1.3 ± 0.1 and the “Batch titer increase at 37° C.” value was 1.9 ± 0.1. This compound returned a Batch titer in the test on HEK293E cells [2] (3 mmol/l sodium butyrate, IgG with p18 and p21, day 14 after transfection) of 528 ± 42 mg/L. Also, the “Fold increase over control” value with HEK293E cells [2] (3 mmol/l sodium butyrate, day 14 after transfection) is given as 7.2 fold. Moreover, the optimal concentration with HEK293E cells [2] (in combination with HEK293E cells) was determined as 3 mmol/L. Further, in the test on HEK293E cells [3], the “Batch titer increase at 31° C.” value is on record as 4.8 ± 0.4 and the “Batch titer increase at 37° C.” value is reported as 4.8 ± 0.4.

Regarding `Nc1ncn([C@@H]2O[C@H](CO)[C@@H](O)[C@H]2O)c(=O)n1` [Azacytidine], the figures for the “Fold increase in batch yield over control” value in the test with CHO DG44 cells [4] (Azacytidine 4 μmol/l) and in the test with HEK293E cells [5] (Azacytidine 6 μmol/l) were 160% ± 10% and 160% ± 15%, respectively. Moreover, in the test on CHO DG44 cells [4], the “interaction with VPA in increasing batch yield” value is “act synergistically together with VPA”.

On to `O=C(O)C(Cc1c[nH]c2ccccc12)N1C(=O)c2ccccc2C1=O` (stereo not shown) [RG108], for which, in the test with CHO DG44 cells [4], the “interaction with VPA in increasing batch yield” value is listed as “act synergistically together with VPA”. In addition, the “Fold increase in batch yield over control” value is 170% ± 15% in the test on CHO DG44 cells [4] (RG108 60 μmol/l) and 150% ± 20% in the test with HEK293E cells [5] (RG108 8 μmol/l).
